The test system of data set [1] is met proto-oncogene (MET) receptor. Kind of data set: Immunoblot analysis for RTK (MET) levels in HCT116 cells. The format is cell-based, human. Particulars: for activity compared with apratoxin S4 (BK) in all biological assays: HCT116, MET levels, cell viability, VEGF-A secretion. As to the method: HCT116 cells were seeded in 6-well plates at a density of 4×10^5 cells and the next day treated with various concentrations of apratoxins or solvent control. 24 h later, whole cell lysates were collected using PhosphoSafe buffer (EMD Chemicals, Inc, Gibbstown, N.J.). The protein concentration was measured with the BCA Protein Assay kit (Thermo Fisher Scientific, Rockford, Ill.). Lysates containing equal amounts of protein were separated by SDS polyacrylamide gel electrophoresis (4-12%), transferred to polyvinylidene difluoride membranes, probed with primary and secondary antibodies, and detected with the SuperSignal West Femto Maximum Sensitivity Substrate (Thermo Fisher Scientific). Anti-Met and secondary anti-mouse antibodies were from Cell Signaling Technology, Inc. (Danvers, Mass.).
For orientation: A western blot detects proteins with antibodies after separation by electrophoresis.

The subject of data set [2] is HCT116 cells. Kind of data set: Cell viability assay (MTT). The format is cell-based, human. The settings on record: for IC50: determined after 48 h (n = 4). As to the method: (§1) Human colon adenocarcinoma HCT116 cells were purchased from ATCC (Manassas, Va.) and cultured in Dulbecco's modified Eagle's medium (Invitrogen, Carlsbad, Calif.) supplemented with 10% fetal bovine serum (HyClone, Logan, Utah) at 37° C. humidified air and 5% CO2.
HCT116 cells were seeded at a density of 1×10^4 cells per well in 96-well plates. 24 h later the cells were treated with various concentrations of apratoxins or solvent control. After 48 h of incubation, cell viability was detected using MTT according to the manufacturer's instructions (Promega, Madison, Wis.).

Data set [3] can be described thus: Microsomal stability. The format is in vitro ADME, mouse. As to the method: HPLC-MS was done on a 3200 QTRAP (Applied Biosystems) equipped with a Shimadzu (Kyoto, Japan) UFLC System. Mouse serum and harmine were purchased from Sigma-Aldrich. Pooled CD1 mouse liver (female) microsomes were purchased from XenoTech, LCC (Lenexa, Kans.) with protein concentrations of 0.5 mg/ml. HCT116 cell lysates were prepared with PhosphoSafe lysis buffer (Novagen). Protein concentration was determined by using the BCA Assay. Analysis was carried out similarly as previously described [Liu, Y.; Salvador, L. A.; Byeon, S.; Ying, Y.; Kwan, J. C.; Law, B. K.; Hong, J.; Luesch. H. J. Pharmacol. Exp. Ther. 2010, 335, 351-361].
The stability of apratoxin A, S4 (BK), S7 (BL), S8 (BM) and S9 (BN) in the presence of mouse microsomes was determined by using an adaptation of a published procedure [Ackley, D. C.; Rockich, K. T.; Baker, T. R. Optimization in Drug Discovery: In Vitro Methods (Series: Methods in Pharmacology and Toxicology) (eds Yan Z, Caldwell J W) 2004, pp 151-162, Springer, New Jersey]. In brief, microsomes were added to prewarmed phosphate buffer (100 mM, pH 7.4) at 37° C. Apratoxin A, BK, BL, BM, or BN (3 μL) were added to the microsomal preparation followed by NADPH cofactor solution (1.3 mM NADP, 3.3 mM glucose 6-phosphate, 0.4 U/mL glucose-6-phosphate dehydrogenase, 3.3 mM MgCl2). The reaction was allowed to proceed for 3 min to 3 h (7 time points) at 37° C. (thermomixer, 1050 rpm). The reaction was quenched by addition of ethyl acetate and subsequently spiked with harmine. The zero time point was defined by denaturing the microsomes with ethyl acetate before the addition of apratoxins. Incubation of apratoxins with microsomes alone was also performed following the same procedure to determine NADPH-dependent metabolism. The final concentration of the incubation mixture contained 0.5 mg/ml protein concentration and 1 μM apratoxins.
Analysis of apratoxin A, S4 (BK), S7 (BL), S8 (BM) and S9 (BN) was done by using HPLC-MS [column, Onyx Monolithic C18 (3.0×100 mm), Phenomenex (Torrance, Calif.); solvent, water (solvent A) acetonitrile (solvent B); flow rate, 0.5 ml/min; detection by electrospray ionization-MS in positive ion mode (MRM scan)]. A stepwise gradient elution was used starting at 60% B and 40% A, then increasing to 80% B at 5 min and maintained at this condition for 5 min. Parameters were optimized before analysis by using direct syringe infusion. The retention times (tR, min; MRM ion pair) of the analytes and internal standard are as follows: harmine (2.2; 213.1→169.9), apratoxin A (4.7; 841.4→445.2), apratoxin S4 (BK) (4.1; 828.5→432.2), apratoxin S7 (BL) (4.05; 814.5→418.2), apratoxin S8 (BM) (5.2; 842.5→446.2), apratoxin S9 (BN) (4.9; 828.5→432.2). Compound-dependent parameters used were as follows: apratoxin A, declustering potential (DP) 51, entrance potential (EP) 12, collision energy (CE) 45, collision cell exit potential (CXP) 6, collision cell entrance potential (CEP) 32; and harmine, DP 56.0, EP 4.5, CE 44.0, CXP 5, CEP 16.0. Source gas parameters used were as follows: curtain gas, 15.0; collision gas low, ionspray voltage 5500; temperature, 600.0; ion source gas 150.0; ion source gas 2 60.0.
Calibration curves for apratoxin A, S4 (BK), S7 (BL), S8 (BM) and S9 (BN) in the presence of mouse serum, HCT116 cell lysates, and aqueous solutions were generated by least-square linear regression analysis of the analyte peak area and internal standard peak area ratio against the nominal concentration of the standard solutions. A linear regression analysis was performed, and the concentration of remaining apratoxins at each time point was determined through interpolation for plasma, cellular, and aqueous stability experiments. The amount of remaining apratoxins with microsome incubation was determined from the peak area ratio of apratoxins at tx (3 min to 3 h) and t0. All calculations were done by using Analyst 1.4.2 (Applied Biosystems) Quantitate Mode.

The subject of data set [4] is VEGF-A secretion. Put plainly: Measurement of VEGF-A production (alphaLISA) in HCT116 culture supernatants. The format is cell-based, human. Particulars: for IC50: determined after 12 h (n = 3). Here is the method:
as §1
HCT116 cells (1×10^4 cells per well) were seeded in 96-well plates and one day later treated with various concentrations of apratoxins or solvent control. After 12 h of incubation, culture supernatants were collected for detection of VEGF-A by using an alphaLISA kit (PerkinElmer, Waltham, Mass.) following the manufacturer's instructions. Briefly, acceptor bead and anti-VEGF antibody were incubated first with the supernatants for 60 min, donor beads were added later and incubated for another 30 min and then VEGF-A levels detected using Envision (PerkinElmer).

`CC[C@H](C)[C@H]1C(=O)N2CCC[C@@H]2C(=O)O[C@H](C(C)(C)C)C[C@@H](C)C[C@H](O)CC2=N[C@@H](CCC(=O)N[C@@H](Cc3ccc(OC)cc3)C(=O)N(C)[C@@H](C)C(=O)N1C)CS2` [apratoxin S7 (BL), Apratoxin S7]: the “activity compared with apratoxin S4 (BK) in all biological assays” value in data set [1] is “retained potent activity”. For the same compound, the IC50 in data set [2] turned out to be 1250 pM; in data set [4], 300 pM. The “% remaining” value in data set [3] (microsomes + NADPH, 0 min) is given as 100%; in data set [3] (microsomes + NADPH, 3 min), 54.95 ± 4.74%; in data set [3] (microsomes + NADPH, 5 min), 18.70 ± 1.41%; in data set [3] (microsomes + NADPH, 15 min) it was 52.40 ± 2.40%; in data set [3] (microsomes + NADPH, 30 min), 6.10 ± 1.96%; in data set [3] (microsomes + NADPH, 60 min), 5.41 ± 1.09%. Besides, the “% remaining” value in data set [3] (microsomes + NADPH, 120 min) is on record as 4.30 ± 0.82%; in data set [3] (microsomes only, 0 min), 100%; in data set [3] (microsomes only, 3 min), 66.60 ± 12.30%; in data set [3] (microsomes only, 5 min), 60.50 ± 2.26%; in data set [3] (microsomes only, 15 min), 76.55 ± 9.55%; in data set [3] (microsomes only, 30 min) it was 54.80 ± 1.56%. Besides, the “% remaining” value in data set [3] (microsomes only, 60 min) is listed as 54.50 ± 0.00%; in data set [3] (microsomes only, 120 min), 53.85 ± 9.40%.
Turning to `CC[C@H](C)[C@H]1C(=O)N2CCC[C@@H]2C(=O)O[C@H](C(C)(C)C)C[C@@H](C)C[C@H](O)C(C)(C)C2=N[C@@H](CCC(=O)N[C@@H](Cc3ccc(OC)cc3)C(=O)N(C)[C@@H](C)C(=O)N1C)CS2` [apratoxin S8 (BM), Apratoxin S8], the “activity compared with apratoxin S4 (BK) in all biological assays” value in data set [1] is on record as “retained potent activity”. The IC50 came out at 1990 pM in data set [2] and 470 pM in data set [4]. For the same compound, the “% remaining” value amounted to 100% in data set [3] (microsomes + NADPH, 0 min); 37.20 ± 1.27% in data set [3] (microsomes + NADPH, 3 min); 17.30 ± 2.55% in data set [3] (microsomes + NADPH, 5 min); 8.28 ± 2.86% in data set [3] (microsomes + NADPH, 15 min); 4.83 ± 1.05% in data set [3] (microsomes + NADPH, 30 min); 3.55 ± 0.91% in data set [3] (microsomes + NADPH, 60 min). For the same compound, the “% remaining” value in data set [3] (microsomes + NADPH, 120 min) is on record as 5.01 ± 0.23%; in data set [3] (microsomes only, 0 min), 100%; in data set [3] (microsomes only, 3 min), 74.10 ± 9.62%; in data set [3] (microsomes only, 5 min) it was 77.45 ± 3.18%; in data set [3] (microsomes only, 15 min), 63.45 ± 3.61%; in data set [3] (microsomes only, 30 min), 74.75 ± 8.70%. Further, the “% remaining” value came out at 81.25 ± 1.91% in data set [3] (microsomes only, 60 min) and 70.05 ± 0.78% in data set [3] (microsomes only, 120 min).
Turning to `CC[C@H](C)[C@H]1C(=O)N2CCC[C@@H]2C(=O)O[C@H](C(C)(C)C)C[C@@H](C)C[C@H](O)[C@H](C)C2=N[C@H](CCC(=O)N[C@@H](Cc3ccc(OC)cc3)C(=O)N(C)[C@@H](C)C(=O)N1C)CS2` [apratoxin S9 (BN), Apratoxin S9], the “potency in reducing levels of MET receptor” value in data set [1] (HCT116, immunoblot, 24 h, FIG. 1) was “superior, picomolar (sub-nanomolar) potency”. Moreover, the “potency relative to the other apratoxins, MET levels” value in data set [1] (HCT116, immunoblot, FIG. 1) is recorded as 2-3 fold. Also, the “activity compared with apratoxin S4 (BK) in all biological assays” value in data set [1] was “retained potent activity”. Besides, in data set [2], the “potency relative to the other apratoxins, cell viability” value is 2-3 fold. In addition, the IC50 is 690 pM in data set [2] and 120 pM in data set [4]. Further, the “% remaining” value in data set [3] (microsomes + NADPH, 0 min) amounted to 100%; in data set [3] (microsomes + NADPH, 3 min) it was 51.40 ± 8.06%; in data set [3] (microsomes + NADPH, 5 min) it was 17.80 ± 0.28%; in data set [3] (microsomes + NADPH, 15 min), 3.55 ± 0.25%; in data set [3] (microsomes + NADPH, 30 min), 3.73 ± 0.25%; in data set [3] (microsomes + NADPH, 60 min), 6.06 ± 2.40%. The “% remaining” value in data set [3] (microsomes + NADPH, 120 min) came out at 5.63 ± 0.18%; in data set [3] (microsomes only, 0 min), 100%; in data set [3] (microsomes only, 3 min), 83.10 ± 0.42%; in data set [3] (microsomes only, 5 min) it was 71.40 ± 1.27%; in data set [3] (microsomes only, 15 min), 45.25 ± 5.30%; in data set [3] (microsomes only, 30 min) it was 56.05 ± 1.06%. The “% remaining” value is reported as 48.45 ± 0.92% in data set [3] (microsomes only, 60 min) and 56.25 ± 0.21% in data set [3] (microsomes only, 120 min). Moreover, the “potency relative to the other apratoxins, VEGF-A secretion” value in data set [4] was 2-3 fold.

A word on the IC50: it is the concentration at which inhibition is half-maximal. Read a low IC50 as greater potency.

Source of the values: US11718645B2, “Macrocyclic therapeutic agents, methods of manufacture, and methods of treatment” (University of Florida Research Foundation, Incorporated, priority 2014, dated 2023).
